Results published in US7429564B2, “Oral insulin therapy” (Emisphere Technologies, Inc., priority 2002, dated 2008).
Read-outs that look alike come from different tables or passages of the source.

Assay: Example 5: 4-CNAB plasma pharmacokinetics, single oral doses, healthy male volunteers
Assay type: in vivo, human
Details: for AUC(0-inf) / AUC(0-t) / Cmax / MRT inf / Vd/F / half-life / Tmax / MRT / MRT last: male, human, plasma; for AUC(0-inf) / AUC(0-t) / Cmax / MRT inf / Vd/F / half-life / Tmax / MRT: po; for MRT inf: read-out: 4-CNAB MRT(0-inf); for half-life: read-out: 4-CNAB t1/2 (converted); for MRT: read-out: 4-CNAB MRT(0-f); for MRT last: read-out: 4-CNAB MRT(0-t)
Description: A single center, double-blind, randomized placebo-controlled study undertaken in healthy human subjects in order to assess the safety and tolerability of escalating single oral doses of 4-CNAB capsules and insulin/4-CNAB capsules.
Within each treatment period in each group, eight subjects were planned to receive active treatment and two subjects to receive placebo. In Group 1, there were four escalating single doses of 4-CNAB (400, 800, 1400 and 2000 mg) and each subject received either all four of these escalating doses or three escalating single doses and one dose of placebo. […] In Group 3 there were three escalating oral doses of Insulin/4-CNAB (100 Units/300 mg, 100 Units/450 mg and 150 Units/100 mg) and one SC dose of 150 Units of insulin. Each subject received either all four of these treatments or three of these treatments and one placebo treatment. For all groups, there was a washout period of at least 72 hours between treatment periods.
The concentration of 4-CNAB in plasma was determined using a combination of liquid chromatography and Mass spectrometry assay known as LC-MS/MS. The method involves protein precipitation followed by separation on liquid chromatography using a Hypersil BDS column and a mobile phase consisting of methanol and acetate buffer. The eluting peaks were quantified by MS/MS. The equipment used for the determination of 4-CNAB in plasma comprises of an Agilent 1100 modular HPLC system with a Micromass Quattro Micro MS/MS detector. HPLC and AR grade chemicals and reagents were used throughout the study.
On the basis of plasma concentrations of 4-CNAB and insulin, PK analysis was performed using non-compartmental PK methods as implemented in WinNonlin™ Professional version 3.2. The profiles for insulin and C-peptide corrected insulin were evaluated up to 6 hours as food was given 6 hours following insulin treatment. The following parameters were derived for 4-CNAB: Cmax, tmax, AUC(0-t), AUC(0-inf), AUC% Extrap, Kel, t1/2, CL/F, Vd/F, MRT(0-t), MRT(0-inf) and Frel. The following parameters were derived for insulin and C-peptide corrected insulin: Cmax, tmax, AUC(0-2), AUC(0-6), AUC(0-t) and concentrations (C^b) and corresponding time (t^b) immediately prior to intervention for hypoglycemia.

[1] = 2000 mg, 4-CNAB alone 2000 mg oral
[2] = with insulin, 100 Units/300 mg oral
[3] = with insulin, 100 Units/450 mg oral
[4] = with insulin, 100 Units/600 mg oral
[5] = with insulin, 150 Units/100 mg oral
[6] = with insulin, 150 Units/200 mg oral

Q: Which AUC(0-inf) [1] does the source give for `O=C(O)CCCNC(=O)c1ccc(Cl)cc1O` [4-CNAB, 4-[(4-chloro, 2-hydroxybenzoyl)amino]butanoic acid] here?
A: The AUC(0-inf) was 192000 ± 37100 ng·h/mL.

Q: And the AUC(0-t) [1]?
A: Its AUC(0-t) is 204000 ± 103000 ng·h/mL.

Q: And the Cmax [1]?
A: The Cmax was 135000 ± 86600 ng/mL.

Q: What about the MRT inf [1] of the same molecule?
A: Its MRT inf is 7.45 ± 2.36 h.

Q: What about the Vd/F (2000 mg, 4-CNAB alone 2000 mg oral, read-out: 4-CNAB Vd/F) of the same molecule?
A: Its Vd/F is 245 ± 131 L.

Q: And the half-life [1]?
A: Its half-life is 918 ± 414 min.

Q: What about the Tmax (2000 mg, 4-CNAB alone 2000 mg oral, read-out: 4-CNAB tmax, median (range)) of the same molecule?
A: The Tmax was 45 min.

Q: What about the AUC(0-inf) [2] of the same molecule?
A: Its AUC(0-inf) is 9240 ± 5940 ng·h/mL.

Q: And the AUC(0-t) [2]?
A: Its AUC(0-t) is 8740 ± 5520 ng·h/mL.

Q: And the Cmax [2]?
A: The Cmax was 8900 ± 6350 ng/mL.

Q: What about the MRT [2] of the same molecule?
A: The MRT was 1.51 ± 0.16 h.

Q: What about the MRT inf [2] of the same molecule?
A: Its MRT inf is 2.43 ± 0.82 h.

Q: What about the Vd/F (with insulin, 100 Units/300 mg oral, read-out: 4-CNAB Vz/F) of the same molecule?
A: Its Vd/F is 324 ± 239 L.

Q: And the half-life [2]?
A: The half-life was 318 ± 198 min.

Q: And the Tmax (with insulin, 100 Units/300 mg oral, read-out: 4-CNAB tmax, median)?
A: Its Tmax is 30 min.

Q: What about the AUC(0-inf) [3] of the same molecule?
A: The AUC(0-inf) was 26800 ± 4560 ng·h/mL.

Q: And the AUC(0-t) [3]?
A: Its AUC(0-t) is 26000 ± 4410 ng·h/mL.

Q: What about the Cmax [3] of the same molecule?
A: Its Cmax is 23200 ± 7930 ng/mL.

Q: What about the MRT [3] of the same molecule?
A: Its MRT is 1.79 ± 0.5 h.

Q: And the MRT inf [3]?
A: Its MRT inf is 2.3 ± 0.46 h.

Q: And the Vd/F (with insulin, 100 Units/450 mg oral, read-out: 4-CNAB Vz/F)?
A: Its Vd/F is 101 ± 35 L.

Q: What about the half-life [3] of the same molecule?
A: Its half-life is 246 ± 72 min.

Q: And the Tmax (with insulin, 100 Units/450 mg oral, read-out: 4-CNAB tmax, median)?
A: The Tmax was 30 min.

Q: What about the AUC(0-inf) [4] of the same molecule?
A: Its AUC(0-inf) is 37600 ± 5430 ng·h/mL.

Q: What about the AUC(0-t) [4] of the same molecule?
A: Its AUC(0-t) is 36600 ± 5760 ng·h/mL.

Q: And the Cmax [4]?
A: The Cmax was 35800 ± 12300 ng/mL.

Q: And the MRT [4]?
A: Its MRT is 1.45 ± 0.17 h.

Q: What about the MRT inf [4] of the same molecule?
A: The MRT inf was 1.9 ± 0.58 h.

Q: What about the Vd/F (with insulin, 100 Units/600 mg oral, read-out: 4-CNAB Vz/F) of the same molecule?
A: The Vd/F was 96 ± 35 L.

Q: What about the half-life [4] of the same molecule?
A: The half-life was 246 ± 72 min.

Q: And the Tmax (with insulin, 100 Units/600 mg oral, read-out: 4-CNAB tmax, median)?
A: The Tmax was 30 min.

Q: What about the AUC(0-inf) [5] of the same molecule?
A: The AUC(0-inf) was 4920 ± 1100 ng·h/mL.

Q: What about the AUC(0-t) [5] of the same molecule?
A: Its AUC(0-t) is 4680 ± 1080 ng·h/mL.

Q: And the Cmax [5]?
A: Its Cmax is 6200 ± 3600 ng/mL.

Q: What about the MRT [5] of the same molecule?
A: The MRT was 1.42 ± 0.56 h.

Q: What about the MRT inf [5] of the same molecule?
A: Its MRT inf is 2.39 ± 1.39 h.

Q: What about the Vd/F (with insulin, 150 Units/100 mg oral, read-out: 4-CNAB Vz/F) of the same molecule?
A: The Vd/F was 148 ± 102 L.

Q: What about the half-life [5] of the same molecule?
A: Its half-life is 288 ± 204 min.

Q: And the Tmax (with insulin, 150 Units/100 mg oral, read-out: 4-CNAB tmax, median)?
A: Its Tmax is 30 min.

Q: What about the AUC(0-inf) [6] of the same molecule?
A: The AUC(0-inf) was 10300 ± 2080 ng·h/mL.

Q: What about the AUC(0-t) [6] of the same molecule?
A: Its AUC(0-t) is 10000 ± 1890 ng·h/mL.

Q: And the Cmax [6]?
A: Its Cmax is 10100 ± 5090 ng/mL.

Q: And the MRT [6]?
A: Its MRT is 1.59 ± 0.23 h.

Q: What about the MRT inf [6] of the same molecule?
A: Its MRT inf is 1.97 ± 0.39 h.

Q: And the Vd/F (with insulin, 150 Units/200 mg oral, read-out: 4-CNAB Vz/F)?
A: Its Vd/F is 89 ± 35 L.

Q: And the half-life [6]?
A: Its half-life is 192 ± 84 min.

Q: What about the Tmax (with insulin, 150 Units/200 mg oral, read-out: 4-CNAB tmax, median) of the same molecule?
A: The Tmax was 30 min.

Q: What about the MRT last (4-CNAB alone 400 mg oral) of the same molecule?
A: The MRT last was 1.6 ± 0.23 h.

Q: What about the MRT last (4-CNAB alone 800 mg oral) of the same molecule?
A: Its MRT last is 1.75 ± 0.22 h.

Q: And the MRT last (4-CNAB alone 1400 mg oral)?
A: Its MRT last is 1.6 ± 0.2 h.

Q: What about the MRT last (4-CNAB alone 2000 mg oral) of the same molecule?
A: The MRT last was 1.73 ± 0.31 h.

Q: What about the “4-CNAB Cl/F” value [2] of the same molecule?
A: The value was 834 ± 527 mL/min.

Q: What about the 4-CNAB Kel [2] of the same molecule?
A: The 4-CNAB Kel was 0.19 ± 0.12 h⁻¹.

Q: And the “4-CNAB Cl/F” value [3]?
A: Its value is 287 ± 49 mL/min.

Q: And the 4-CNAB Kel [3]?
A: Its 4-CNAB Kel is 0.185 ± 0.06 h⁻¹.

Q: And the “4-CNAB Cl/F” value [4]?
A: The value was 271 ± 38 mL/min.

Q: What about the 4-CNAB Kel [4] of the same molecule?
A: The 4-CNAB Kel was 0.19 ± 0.06 h⁻¹.

Q: What about the “4-CNAB Cl/F” value [5] of the same molecule?
A: The value was 352 ± 68 mL/min.

Q: What about the 4-CNAB Kel [5] of the same molecule?
A: Its 4-CNAB Kel is 0.22 ± 0.14 h⁻¹.

Q: And the “4-CNAB Cl/F” value [6]?
A: Its value is 338 ± 75 mL/min.

Q: What about the 4-CNAB Kel [6] of the same molecule?
A: The 4-CNAB Kel was 0.25 ± 0.09 h⁻¹.
